According to ChEMBL document CHEMBL3045537, “Synthesis of 2-(aryl)-5-(arylidene)-4-thiazolidinone derivatives with potential analgesic and anti-inflammatory activity” (2012):

Key:
Format in all cases: functional
[1] = tested on: Mus musculus; assay: Analgesic activity in Mus musculus (mouse) assessed as protection against acetic acid-induced writhing at 10 mg/kg, po administered 30 min prior challenge measured for 20 min
[2] = tested on: Rattus norvegicus; assay: Anti-inflammatory activity inRattus norvegicus albino (rat) assessed as reduction of carrageenan-induced paw edema at 10 mg/kg, po administered 1 hr prior challenge measured after 4 hr post challenge by plethismometer; set-up: scale not given: the % may be the effect or the level left
[3] = tested on: Rattus norvegicus; assay: Anti-inflammatory activity inRattus norvegicus albino (rat) assessed as reduction of carrageenan-induced paw edema at 10 mg/kg, po administered 1 hr prior challenge measured after 2 hr post challenge by plethismometer; set-up: scale not given: the % may be the effect or the level left

Structure (SMILES) | Activity [1] [%] | Activity [2] [%] | Activity [3] [%]
O=C(NN1C(=O)/C(=C/c2ccccc2)SC1c1ccc(Cl)cc1)c1ccc(-c2ccccc2)cc1 (configuration not stated) | 20.43 | 55.11 | 48.92
O=C(NN1C(=O)/C(=C/c2cccc([N+](=O)[O-])c2)SC1c1ccc(Cl)cc1)c1ccc(-c2ccccc2)cc1 (configuration not stated) | 27.5 | 56.35 | 45.21
O=C(NN1C(=O)/C(=C/c2ccc(Cl)cc2)SC1c1ccc(Cl)cc1)c1ccc(-c2ccccc2)cc1 (configuration not stated) | 22.93 | 55.34 | 46.14
O=C(NN1C(=O)/C(=C/c2cccc(Br)c2)SC1c1ccc(Cl)cc1)c1ccc(-c2ccccc2)cc1 (configuration not stated) | 17.93 | 54.8 | 44.56
COc1ccc(/C=C2\SC(c3ccc(Cl)cc3)N(NC(=O)c3ccc(-c4ccccc4)cc3)C2=O)cc1 (configuration not stated) | 29.6 | 53.87 | 45.83
O=C(NN1C(=O)/C(=C/c2ccccc2)SC1c1cccc([N+](=O)[O-])c1)c1ccc(-c2ccccc2)cc1 (configuration not stated) | 40.85 | 47.99 | 38.09
O=C(NN1C(=O)/C(=C/c2cccc([N+](=O)[O-])c2)SC1c1cccc([N+](=O)[O-])c1)c1ccc(-c2ccccc2)cc1 (configuration not stated) | 43.35 | 51.37 | 39.63
O=C(NN1C(=O)/C(=C/c2ccc(Cl)cc2)SC1c1cccc([N+](=O)[O-])c1)c1ccc(-c2ccccc2)cc1 (configuration not stated) | 46.25 | 49.23 | 39.94
O=C(NN1C(=O)/C(=C/c2cccc(Br)c2)SC1c1cccc([N+](=O)[O-])c1)c1ccc(-c2ccccc2)cc1 (configuration not stated) | 37.5 | 50.78 | 38.7
COc1ccc(/C=C2\SC(c3cccc([N+](=O)[O-])c3)N(NC(=O)c3ccc(-c4ccccc4)cc3)C2=O)cc1 (configuration not stated) | 37.93 | 48.92 | 37.78
COc1ccc(C2S/C(=C\c3ccccc3)C(=O)N2NC(=O)c2ccc(-c3ccccc3)cc2)cc1 (configuration not stated) | 38.35 | 68.74 | 45.83
COc1ccc(C2S/C(=C\c3cccc([N+](=O)[O-])c3)C(=O)N2NC(=O)c2ccc(-c3ccccc3)cc2)cc1 (configuration not stated) | 36.25 | 71.21 | 47.68
COc1ccc(C2S/C(=C\c3ccc(Cl)cc3)C(=O)N2NC(=O)c2ccc(-c3ccccc3)cc2)cc1 (configuration not stated) | 32.1 | 71.83 | 57.9
COc1ccc(C2S/C(=C\c3cccc(Br)c3)C(=O)N2NC(=O)c2ccc(-c3ccccc3)cc2)cc1 (configuration not stated) | 33.35 | 69.05 | 46.75
COc1ccc(/C=C2\SC(c3ccc(OC)cc3)N(NC(=O)c3ccc(-c4ccccc4)cc3)C2=O)cc1 (configuration not stated) | 40.43 | 70.28 | 49.54
O=C(NN1C(=O)/C(=C/c2ccc(Cl)cc2)SC1c1ccc(F)cc1)c1ccc(-c2ccccc2)cc1 (configuration not stated) | 46.25 | 52.92 | 43.64
O=C(NN1C(=O)/C(=C/c2cccc(Br)c2)SC1c1ccc(F)cc1)c1ccc(-c2ccccc2)cc1 (configuration not stated) | 37.5 | 52.08 | 41.76
COc1ccc(/C=C2\SC(c3ccc(F)cc3)N(NC(=O)c3ccc(-c4ccccc4)cc3)C2=O)cc1 (configuration not stated) | 37.93 | 53.62 | 45.82
O=C([O-])Cc1ccccc1Nc1c(Cl)cccc1Cl.[Na+] [DICLOFENAC SODIUM] | 68.5 | 79.26 | 54.18
